Values of other authors as cited in patent publication US6369115B1, “Stabilized powder formulations” (Dura Pharmaceuticals, Inc., priority 2000, dated 2002).

SMILES	solubility in water
COc1ccc(CC(C)NCC(O)c2ccc(O)c(NC=O)c2)cc1 (centres unmarked) [Formoterol, N-[2-hydroxy-5-[1-hydroxy-2-[[2-(4-methoxyphenyl)-1-methylethyl]amino]ethyl]phenyl]formamide]	soluble in water
CCC(=O)O[C@]1(C(=O)SCF)[C@H](C)C[C@H]2[C@@H]3C[C@H](F)C4=CC(=O)C=C[C@]4(C)[C@@]3(F)[C@@H](O)C[C@@]21C [fluticasone propionate, (6 alpha, 11 beta, 16 alpha, 17 alpha)-6,9,-difluoro-11-hydroxy-16-methyl-3-oxo-17-(1-oxopropoxy)androsta-1,4-diene-17-carbothioic acid, S-fluoromethyl ester]	insoluble in water
